As a reminder, the inhibition is the drop in the measured response relative to a control, in per cent.

65 molecules from article PMC7802075 (ACS Infectious Diseases, 2020) can be followed below.

The target of the first assay is T1, LmjIPCS (inositol phosphorylceramide synthase from L. major) (Leishmania major, UniProt E9AFX2).
T1 sequence (E9AFX2 1-338): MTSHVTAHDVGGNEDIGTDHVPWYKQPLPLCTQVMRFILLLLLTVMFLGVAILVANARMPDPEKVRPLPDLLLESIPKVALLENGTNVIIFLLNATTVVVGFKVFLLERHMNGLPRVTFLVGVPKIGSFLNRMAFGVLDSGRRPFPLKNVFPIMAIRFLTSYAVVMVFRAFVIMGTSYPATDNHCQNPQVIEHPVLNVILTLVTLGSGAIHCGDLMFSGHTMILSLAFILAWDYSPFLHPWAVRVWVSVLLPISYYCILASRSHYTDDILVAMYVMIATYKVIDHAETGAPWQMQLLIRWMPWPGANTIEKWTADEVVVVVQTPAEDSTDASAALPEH
The experiment in a line: biochemical. The assay is classed as biochemical. Further details: inhibition: dose or concentration left out as unconfirmed.
Conditions: not given
Consider `NC(=O)N1c2ccccc2C=Cc2ccccc21` [CARBAMAZEPINE], for which the “20mM inhibition LmjIPCS” value was determined as 50%. On the same count and under the same terms, the value for `CC1(C)S[C@@H]2[C@H](NC(=O)C(C(=O)O)c3ccccc3)C(=O)N2[C@H]1C(=O)O` (some centres unmarked) [CARBENICILLIN] was 52%; that for `CCN(CC)CCOCCOC(=O)C1(c2ccccc2)CCCC1` [CARBETAPENTANE] was 51%; that for `CCCC(C)(COC(N)=O)COC(=O)NC(C)C` (centres unmarked) [CARISOPRODOL] was 52%. Turning to `CC1=C(C(=O)O)N2C(=O)[C@@H](NC(=O)[C@H](N)c3ccc(O)cc3)[C@H]2SC1` [CEFADROXIL], the “20mM inhibition LmjIPCS” value turned out to be 37%. Consider `Cc1nnc(SCC2=C(C(=O)O)N3C(=O)[C@@H](NC(=O)Cn4cnnn4)[C@H]3SC2)s1` [CEFAZOLIN], for which the “20mM inhibition LmjIPCS” value was determined as 35%. Regarding `CO/N=C(\C(=O)N[C@@H]1C(=O)N2C(C(=O)OCOC(=O)C(C)(C)C)=C(/C=C\c3scnc3C)CS[C@H]12)c1csc(N)n1` [CEFDITORIN PIVOXIL], the “20mM inhibition LmjIPCS” value is listed as 10%.

For the molecule `CO/N=C(\C(=O)N[C@@H]1C(=O)N2C(C(=O)O)=C(COC(C)=O)CS[C@H]12)c1csc(N)n1` [CEFOTAXIME], the “20mM inhibition LmjIPCS” value stood at 44%. Regarding `CC1=C(O)C(=O)C=C2C1=CC=C1[C@@]2(C)CC[C@@]2(C)[C@@H]3C[C@](C)(C(=O)O)CC[C@]3(C)CC[C@]12C` [CELASTROL], the “20mM inhibition LmjIPCS” value is recorded as 54%. As to `Cc1ccc(-c2cc(C(F)(F)F)nn2-c2ccc(S(N)(=O)=O)cc2)cc1` [CELECOXIB], the “20mM inhibition LmjIPCS” value came out at 51%. Same read-out and setting: the value for `CC(=O)OCC1=C(C(=O)O)N2C(=O)[C@@H](NC(=O)Cc3cccs3)[C@H]2SC1` [CEPHALOTHIN] was 55%; that for `CC(=O)OCC1=C(C(=O)O)N2C(=O)[C@@H](NC(=O)CSc3ccncc3)[C@H]2SC1` [CEPHAPIRIN] was 47%; that for `COc1ccc2cc1Oc1ccc(cc1)C[C@H]1c3c(cc4c(c3Oc3cc5c(cc3OC)CCN(C)[C@@H]5C2)OCO4)CCN1C` [CEPHARANTHINE] was 59%.

On to `CC1=C(C(=O)O)N2C(=O)[C@@H](NC(=O)[C@H](N)C3=CCC=CC3)[C@H]2SC1` [CEPHRADINE], for which the “20mM inhibition LmjIPCS” value was determined as 40%.

For the molecule `Cc1cc(O)ccc1Cl` [CHLOROCRESOL], the “20mM inhibition LmjIPCS” value was determined as 49%. Still for that read-out and setting: the result for `CCN(CC)CCCC(C)Nc1ccnc2cc(Cl)ccc12` (centres unmarked) [CHLOROQUINE] reads 38%; that for `NS(=O)(=O)c1cc2c(cc1Cl)N=CNS2(=O)=O` [CHLOROTHIAZIDE], 51%. In the case of `Oc1c(Cl)cc(Cl)c2cccnc12` [CHLOROXINE], the “20mM inhibition LmjIPCS” value is 37%. Regarding `Cc1cc(O)cc(C)c1Cl` [CHLOROXYLENOL], the “20mM inhibition LmjIPCS” value worked out at 53%. Same read-out and setting: the result for `CN(C)CCC(c1ccc(Cl)cc1)c1ccccn1` (centres unmarked) [CHLORPHENIRAMINE] reads 68%; that for `CN(C)[C@@H]1C(O)=C(C(N)=O)C(=O)[C@@]2(O)C(O)=C3C(=O)c4c(O)ccc(Cl)c4[C@@](C)(O)[C@H]3C[C@@H]12` [CHLORTETRACYCLINE], 56%. On the same count and under the same terms, the result for `NS(=O)(=O)c1cc(C2(O)NC(=O)c3ccccc32)ccc1Cl` (centres unmarked) [CHLORTHALIDONE] reads 42%; that for `CCn1nc(C(=O)O)c(=O)c2cc3c(cc21)OCO3` [CINOXACIN], 53%; that for `C[N+]12CCC(CC1)C(OC(=O)C(O)(c1ccccc1)c1ccccc1)C2` (centres unmarked) [CLIDINIUM BROMIDE], 54%. For the molecule `CCC(=O)O[C@]1(C(=O)CCl)[C@@H](C)C[C@H]2[C@@H]3CCC4=CC(=O)C=C[C@]4(C)[C@@]3(F)[C@@H](O)C[C@@]21C` [CLOBETASOL PROPRIONATE], the “20mM inhibition LmjIPCS” value is recorded as 17%.

Staying with this assay, now noted: NINDS set screen, compound at 20mM (so in the source).
Consider `N.N.O=C([O-])C1(C(=O)[O-])CCC1.[Pt+2]` [CARBOPLATIN], for which the “20mM inhibition LmjIPCS” value was 16%. As for `N.N.[Cl][Pt][Cl]` [CISPLATIN], the “20mM inhibition LmjIPCS” value is on record as 21%.

Still in this assay, the particulars now being: NINDS set screen, single concentration printed as 20mM.
Consider `CN(C)CCOC(c1ccc(Cl)cc1)c1ccccn1` (centres unmarked) [CARBINOXAMINE], for which the “20mM inhibition LmjIPCS” value stood at 36%. Consider `COc1ccc(C(Cl)=C(c2ccc(OC)cc2)c2ccc(OC)cc2)cc1` [CHLOROTRIANISENE], for which the “20mM inhibition LmjIPCS” value was found to be 65%. On the same count and under the same terms, the value for `CCCNC(=O)NS(=O)(=O)c1ccc(Cl)cc1` [CHLORPROPAMIDE] was 55%.

With `CC(C)=CC1C(C(=O)O)C1(C)C` (centres unmarked) [CHRYSANTHEMIC ACID], the “20mM inhibition LmjIPCS” value was 69%. With `Cc1cc(C2CCCCC2)n(O)c(=O)c1` [CICLOPIROX OLAMINE], the “20mM inhibition LmjIPCS” value turned out to be 66%. On to `COc1cc(N)c(Cl)cc1C(=O)NC1CCN(Cc2ccccc2)CC1` [CLEBOPRIDE], for which the “20mM inhibition LmjIPCS” value was determined as 47%.

The same assay, now with this note: NINDS set screen; read-out: inhibition LmjIPCS.
For the molecule `CO/N=C(\C(=O)N[C@@H]1C(=O)N2C(C(=O)O)=C(COC(N)=O)CS[C@H]12)c1ccco1` [CEFUROXIME], the inhibition stood at 16%.

For the molecule `O=C(CCCCCCCCCCCCC1CCCC1)Nc1ccc(S(=O)(=O)c2ccc(NC(=O)CCCCCCCCCCCCC3CCCC3)cc2)cc1` [CHAULMOSULFONE], the inhibition is 32%. The same measure, in the same setting: the value for `[H]/N=C(\N/C(=N/[H])Nc1ccc(Cl)cc1)NC(C)C` [CHLOROGUANIDE] was 28%; that for `O=C1CCc2cc(OCCCCc3nnnn3C3CCCCC3)ccc2N1` [CILOSTAZOL] was 14%. Regarding `CC12CCC(CC1)C(C)(C)O2` [CINEOLE], the inhibition is -13%. Consider `CC(=O)NC1CCSC1=O` (centres unmarked) [CITIOLONE], for which the inhibition was -8%.

The assay is the same for the next values; noted with them: read-out: 20mM inhibition LmjIPCS.
`CCCCCCNC(=O)n1cc(F)c(=O)[nH]c1=O` [CARMOFUR]: the inhibition at 20000 µM worked out at 14%. Turning to `O=NN(CCCl)C(=O)NCCCl` [CARMUSTINE], the inhibition at 20000 µM is 10%. As for `Cn1nnnc1SCC1=C(C(=O)O)N2C(=O)[C@@H](NC(=O)[C@H](O)c3ccccc3)[C@H]2SC1` [CEFAMANDOLE], the inhibition at 20000 µM was 10%.

On to `CO[C@@]1(NC(=O)CSCC#N)C(=O)N2C(C(=O)O)=C(CSc3nnnn3C)CS[C@@H]21` [CEFMETAZOLE], for which the inhibition at 20000 µM is 13%. In the case of `CCN1CCN(C(=O)N[C@@H](C(=O)N[C@@H]2C(=O)N3C(C(=O)O)=C(CSc4nnnn4C)CS[C@H]23)c2ccc(O)cc2)C(=O)C1=O` [CEFOPERAZONE], the inhibition at 20000 µM was found to be 13%. `CO[C@@]1(NC(=O)Cc2cccs2)C(=O)N2C(C(=O)O)=C(COC(N)=O)CS[C@@H]21` [CEFOXITIN]: the inhibition at 20000 µM was found to be 3.72%. In the case of `Nc1nc(/C(=C/CC(=O)O)C(=O)N[C@@H]2C(=O)N3C(C(=O)O)=CCS[C@H]23)cs1` [CEFTIBUTEN], the inhibition at 20000 µM stood at 18%. Same read-out and setting: the result for `CC1=C(C(=O)O)N2C(=O)[C@@H](NC(=O)[C@H](N)c3ccccc3)[C@H]2SC1` [CEPHALEXIN] reads 5.26%.

In the case of `O=C(Cc1cccs1)N[C@@H]1C(=O)N2C(C(=O)[O-])=C(C[n+]3ccccc3)CS[C@H]12` [CEPHALORIDINE], the inhibition at 20000 µM stood at 22%. For `C/C=C(/C)C(=O)O[C@H]1CC[C@@]2(C)[C@@H]3CC[C@H]4[C@]5(O)C[C@H](O)[C@@]6(O)[C@@H](CN7C[C@@H](C)CC[C@H]7[C@@]6(C)O)[C@]5(O)C[C@@]42O[C@]13O` [CEVADINE], the inhibition at 20000 µM turned out to be 10%.

Take `O=C1C(Cl)=C(Cl)C(=O)C(Cl)=C1Cl` [CHLORANIL]: the inhibition at 20000 µM was determined as 19%.

Regarding `CC(=O)O[C@]1(C(C)=O)CC[C@H]2[C@@H]3C=C(Cl)C4=CC(=O)CC[C@]4(C)[C@H]3CC[C@@]21C` [CHLORMADINONE ACETATE], the inhibition at 20000 µM came out at 13%.

`CN1C(=O)CCS(=O)(=O)C1c1ccc(Cl)cc1` (centres unmarked) [CHLORMEZANONE]: the inhibition at 20000 µM is -1.07%. As to `CC(=O)Oc1ccc(Cl)c2cccnc12` [CHLOROACETOXYQUINOLINE], the inhibition at 20000 µM stood at 19%. `CN/C(=N/CCSCc1nc[nH]c1C)NC#N` [CIMETIDINE]: the inhibition at 20000 µM was -0.386%. Take `O=C(O)c1cn(C2CC2)c2cc(N3CCNCC3)c(F)cc2c1=O` [CIPROFLOXACIN]: the inhibition at 20000 µM worked out at 3%.

Consider `C[N+](C)(C)CCOP(=O)(O)OP(=O)([O-])OC[C@H]1O[C@@H](n2ccc(N)nc2=O)[C@H](O)[C@@H]1O` [CITICOLINE], for which the inhibition at 20000 µM worked out at 0.108%.

Still in this assay, the particulars now being: read-out: inhibition LmjIPCS.
For `CC1(C)[C@@H](OC(=O)CCC(=O)O)CC[C@]2(C)[C@H]3C(=O)C=C4[C@@H]5C[C@@](C)(C(=O)O)CC[C@]5(C)CC[C@@]4(C)[C@]3(C)CC[C@@H]12` [CARBENOXOLONE], the inhibition stood at 1.66%. Turning to `CCOC(=O)n1ccn(C)c1=S` [CARBIMAZOLE], the inhibition was found to be 12%.

Consider `C[N+](C)(C)CC(O)CC(=O)[O-]` (centres unmarked) [CARNITINE], for which the inhibition came out at 15%.

As for `N[C@@H](C(=O)N[C@@H]1C(=O)N2C(C(=O)O)=C(Cl)CS[C@H]12)c1ccccc1` [CEFACLOR], the inhibition was found to be 10%. Turning to `O=c1cc(-c2ccccc2)oc2cc(O)cc(O)c12` [CHRYSIN], the inhibition is 22%.

Staying with this assay, now noted: screening of NINDS set, sheet Screen 1; read-out: inhibition LmjIPCS.
For `CC(C(=O)O)c1ccc2c(c1)[nH]c1ccc(Cl)cc12` (centres unmarked) [CARPROFEN], the inhibition was determined as 7%.

Consider `CO/N=C(\C(=O)N[C@@H]1C(=O)N2C(C(=O)O)=C(CSc3nc(=O)c(=O)[nH]n3C)CS[C@H]12)c1csc(N)n1` [CEFTRIAXONE], for which the inhibition worked out at 5.34%. Same read-out and setting: the value for `COc1cc(OC)c2ccc(=O)oc2c1` [CITROPTEN] was 2.18%; that for `CC[C@H]1OC(=O)[C@H](C)[C@@H](O[C@H]2C[C@@](C)(OC)[C@@H](O)[C@H](C)O2)[C@H](C)[C@@H](O[C@@H]2O[C@H](C)C[C@H](N(C)C)[C@H]2O)[C@](C)(OC)C[C@@H](C)C(=O)[C@H](C)[C@@H](O)[C@]1(C)O` [CLARITHROMYCIN] was 5.71%.
